Reference: patent US20240226106A1, “INHIBITORS OF PLASMA KALLIKREIN” (SHIRE HUMAN GENETIC THERAPIES, INC., priority 2021, published 2024)

What was measured:
plasma kallikrein = target: T1, plasma kallikrein (Homo sapiens, UniProt P03952); experiment: Neat human plasma assay (fluorogenic peptide), contact pathway-activated plasma; type: biochemical; settings: citrated human plasma, 10 nM human FXIIa activation, 100 μM PFR-AMC, room temperature; read-out: Human Plasma Assay: IC90
T1 construct: from tissue; host or cells: sodium citrate collected human plasma
T1 sequence (P03952 391-638 limits assumed): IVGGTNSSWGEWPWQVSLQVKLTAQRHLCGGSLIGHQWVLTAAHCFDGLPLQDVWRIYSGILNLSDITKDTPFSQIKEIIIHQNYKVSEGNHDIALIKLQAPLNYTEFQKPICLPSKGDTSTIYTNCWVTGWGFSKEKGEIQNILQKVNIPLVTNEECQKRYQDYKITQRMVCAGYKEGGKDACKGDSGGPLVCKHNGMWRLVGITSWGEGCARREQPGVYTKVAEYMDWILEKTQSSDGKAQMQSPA
T1 sequence (P03952 20-390 partner limits assumed): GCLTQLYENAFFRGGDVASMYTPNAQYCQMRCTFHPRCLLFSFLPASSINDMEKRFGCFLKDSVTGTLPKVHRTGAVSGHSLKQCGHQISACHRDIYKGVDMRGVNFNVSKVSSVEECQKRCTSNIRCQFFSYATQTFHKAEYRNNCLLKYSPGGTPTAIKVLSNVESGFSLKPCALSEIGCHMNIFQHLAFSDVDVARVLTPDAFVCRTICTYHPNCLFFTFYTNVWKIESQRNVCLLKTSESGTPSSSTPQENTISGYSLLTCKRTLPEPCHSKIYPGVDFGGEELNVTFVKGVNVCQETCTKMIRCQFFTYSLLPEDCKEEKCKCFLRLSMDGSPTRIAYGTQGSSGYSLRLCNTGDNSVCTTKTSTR

[1] = target: human activated kallikrein enzyme (Homo sapiens, UniProt P03952); experiment: Inhibition of human activated plasma kallikrein, fluorogenic peptide substrate (PFR-AMC), 500 pM enzyme format; type: biochemical; settings: 500 pM activated kallikrein, 30 min preincubation, 10 min reaction, room temperature, read-out: Primary Dose Response Assay: Average EC50
Sequence of human activated kallikrein enzyme (P03952 391-638 limits assumed): as the sequence (P03952 391-638 limits assumed) above
Sequence of human activated kallikrein enzyme (P03952 20-390 partner limits assumed): as the sequence (P03952 20-390 partner limits assumed) above
How it was run: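 Enzyme at 500 pM with […] PFR-AMC in 20 mM Tris pH 7.5, 1 mM EDTA, 150 mM NaCl, 0.1% PEG-400, 0.1% Triton X-100. Inhibitor preincubated 30 min, then 10 min reaction at room temperature; AMC fluorescence read at 380 nm excitation/460 nm emission.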

What does the source list for `CN1C(=O)CN(c2cc(C3CC3)nn3cc(CNc4cc(NC(=O)[C@H]5C[C@@H]5c5cc(Cl)ccn5)ncn4)nc23)C1=O` [Example 63, (1S,2S)-2-(4-chloropyridin-2-yl)-N-(6-(((6-cyclopropyl-8-(3-methyl-2,4-dioxoimidazolidin-1-yl)imidazo[1,2-b]pyridazin-2-yl)methyl)amino)pyrimidin-4-yl)cyclopropane-1-carboxamide]?
IC90 (plasma kallikrein): 0.5 to 5 µM; EC50 [1]: < 2.5 nM

`Cc1ccnc([C@H]2C[C@@H]2C(=O)Nc2ncc(F)c(NCc3cn4cc(C5CC5)nc(N5CC(=O)N(C)C5=O)c4n3)n2)n1` (racemic) [Example 84, rac-(1S*,2S*)—N-(4-(((6-cyclopropyl-8-(3-methyl-2,4-dioxoimidazolidin-1-yl)imidazo[1,2-a]pyrazin-2-yl)methyl)amino)-5-fluoropyrimidin-2-yl)-2-(4-methylpyrimidin-2-yl) cyclopropane-1-carboxamide] was tested. Which IC90 (plasma kallikrein) did it give?
Its IC90 is under 0.5 µM.

What about the EC50 [1] of the same molecule?
The EC50 was under 2.5 nM.

Which IC90 (plasma kallikrein) does the source give for `O=C(Nc1cc(N2C[C@@H](O)C[C@@H]2c2cn3nc(C4CC4)ccc3n2)ncn1)[C@H]1C[C@@H]1c1cc(Cl)ccn1` [Example 61, (1S,2S)-2-(4-chloropyridin-2-yl)-N-(6-((2R,4S)-2-(6-cyclopropylimidazo[1,2-b]pyridazin-2-yl)-4-hydroxypyrrolidin-1-yl)pyrimidin-4-yl)cyclopropane-1-carboxamide] here?
Its IC90 is 0.5 to 5 µM.

And the EC50 [1]?
Its EC50 is under 2.5 nM.

With `O=C(Nc1cc(NCc2cn3cc(C4CC4)cnc3n2)ncn1)[C@H]1C[C@@H]1c1cc(Cl)ccn1` [Example 66, (1S,2S)-2-(4-chloropyridin-2-yl)-N-(6-(((6-cyclopropylimidazo[1,2-a]pyrimidin-2-yl)methyl)amino)pyrimidin-4-yl)cyclopropane-1-carboxamide] as the molecule, how does the IC90 (plasma kallikrein) read?
The IC90 was 0.5 to 5 µM.

And the EC50 [1]?
The EC50 was under 2.5 nM.

Which IC90 (plasma kallikrein) does the source give for `CN1CCN(c2cc(C3CC3)cn3nc(CNc4ccnc(NC(=O)[C@H]5C[C@@H]5c5cccc(Cl)c5)c4)nc23)CC1` [Example 45, (1S,2S)-2-(3-chlorophenyl)-N-(4-(((6-cyclopropyl-8-(4-methylpiperazin-1-yl)-[1,2,4]triazolo[1,5-a]pyridin-2-yl)methyl)amino)pyridin-2-yl)cyclopropane-1-carboxamide] here?
The IC90 was 5 to 65 µM.

What about the EC50 [1] of the same molecule?
Its EC50 is under 2.5 nM.
